Activity calls are given as the source filed them. No cut-off for these calls is given here.

This is an account of results in ChEMBL document CHEMBL3804816 (Medchemcomm, 2016).

What all share (format): cell-based
In test [1] the test system is IMR-32. Description: Agonist activity at GABA type-A receptor in human IMR32 cells at 100 uM after 2 hrs by Epic DMR assay.
Test [2] in a line: Antagonist activity against GABA type-A receptor in human IMR32 cells assessed as GABA-induced response preincubated for 10 mins followed by GABA addition measured at 140 mins by Epic DMR assay.
Test [3] can be described thus: Agonist activity at GABA type-A receptor in human IMR32 cells after 2 hrs by Epic DMR assay. The settings on record: IMR-32, 2 h.
In test [4] the test system is IMR-32. Description: Agonist activity at GABA type-A receptor in human IMR32 cells at 1 mM after 2 hrs by Epic DMR assay.

In the case of `NCC(CC(=O)O)c1ccc(Cl)cc1` (racemic), the outcome in the test with IMR-32 [1] was inactive. For the molecule `COc1ccc(-c2ccc(=N)n(CCCC(=O)O)n2)cc1` [GABAZINE], the IC50 was 7.38 µM in test [2] (IMR-32, read-out: IC50) and 4.57 µM in test [2] (IMR-32, read-out: pIC50 (converted)). Take `NCc1cc(O)no1` [MUSCIMOL]: the EC50 is 2.04 µM in test [3] (read-out: EC50) and 1.7 µM in test [3] (read-out: pEC50 (converted)). Further, the outcome in the test with IMR-32 [4] was Active. Turning to `Oc1noc2c1CCNC2`, the outcome in the test with IMR-32 [4] was Active.
